One test addresses T1, human orexin-2 receptor (Homo sapiens, UniProt O43614).
T1 construct: expressed in transfected cells; host or cells: Chinese hamster ovary (CHO) cells
T1 sequence (O43614 1-444): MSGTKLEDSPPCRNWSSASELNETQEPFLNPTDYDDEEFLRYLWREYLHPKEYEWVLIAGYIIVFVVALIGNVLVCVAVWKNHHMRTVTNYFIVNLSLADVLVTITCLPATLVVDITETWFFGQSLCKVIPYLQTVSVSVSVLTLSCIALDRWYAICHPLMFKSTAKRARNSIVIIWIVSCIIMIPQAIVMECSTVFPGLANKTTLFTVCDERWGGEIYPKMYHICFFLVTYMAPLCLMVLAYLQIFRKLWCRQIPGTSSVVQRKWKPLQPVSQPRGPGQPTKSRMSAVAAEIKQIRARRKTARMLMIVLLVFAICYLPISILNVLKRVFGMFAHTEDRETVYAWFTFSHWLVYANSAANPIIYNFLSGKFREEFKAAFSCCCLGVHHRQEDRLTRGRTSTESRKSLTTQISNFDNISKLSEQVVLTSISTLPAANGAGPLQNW
Briefly: FLIPR calcium assay of orexin receptor antagonistic activity, CHO cells expressing human orexin-2 receptor. The class given is cell-based. The settings on record: read-out: OX2 IC50. The method, then: (§1) The orexin receptor antagonistic activity of the compounds of formula (I) is determined in accordance with the following experimental method.
(§2) Chinese hamster ovary (CHO) cells expressing the human orexin-1 receptor and the human orexin-2 receptor, respectively, are grown in culture medium (Ham F-12 with L-Glutamine) containing 300 μg/ml G418, […] penicillin, 100 μg/ml streptomycin and 10% heat inactivated fetal calf serum (FCS). The cells are seeded at 20′000 cells/well into 384-well black clear bottom sterile plates (Greiner). The seeded plates are incubated overnight at 37° C. in 5% CO2.
(§3) Human orexin-A as an agonist is prepared as 1 mM stock solution in MeOH:water (1:1), diluted in HBSS containing 0.1% bovine serum albumin (BSA), NaHCO3: 0.375 g/l and 20 mM HEPES for use in the assay at a final concentration of 3 nM.
(§4) Antagonists are prepared as 10 mM stock solution in DMSO, then diluted in 384-well plates using DMSO followed by a transfer of the dilutions into in HBSS containing 0.1% bovine serum albumin (BSA), NaHCO3: 0.375 g/l and 20 mM HEPES. On the day of the assay, 50 μl of staining buffer (HBSS containing 1% FCS, 20 mM HEPES, NaHCO3: 0.375 g/l, 5 mM probenecid (Sigma) and 3 μM of the fluorescent calcium indicator fluo-4 AM (1 mM stock solution in DMSO, containing 10% pluronic) is added to each well. The 384-well cell-plates are incubated for 50 min at 37° C. in 5% CO2 followed by equilibration at rt for 30-120 min before measurement.
(§5) Within the Fluorescent Imaging Plate Reader (FLIPR Tetra, Molecular Devices), antagonists are added to the plate in a volume of 10 μl/well, incubated for 10 min and finally […] of agonist is added. Fluorescence is measured for each well at 1 second intervals, and the height of each fluorescence peak is compared to the height of the fluorescence peak induced by 3 nM orexin-A with vehicle in place of antagonist. For each antagonist, the IC50 value (the concentration of compound needed to inhibit 50% of the agonistic response) is determined and may be normalized using the obtained IC50 value of a on-plate reference compound (normalized values in Table 1 are indicated by an asterisk *). Optimized conditions were achieved by adjustment of pipetting speed and cell splitting regime. The calculated IC50 values of the compounds may fluctuate depending on the daily cellular assay performance. Fluctuations of this kind are known to those skilled in the art.

Another test concerns the target T2, human orexin-1 receptor (Homo sapiens, UniProt O43613).
T2 construct: expressed in transfected cells; host or cells: Chinese hamster ovary (CHO) cells
T2 sequence (O43613 1-425): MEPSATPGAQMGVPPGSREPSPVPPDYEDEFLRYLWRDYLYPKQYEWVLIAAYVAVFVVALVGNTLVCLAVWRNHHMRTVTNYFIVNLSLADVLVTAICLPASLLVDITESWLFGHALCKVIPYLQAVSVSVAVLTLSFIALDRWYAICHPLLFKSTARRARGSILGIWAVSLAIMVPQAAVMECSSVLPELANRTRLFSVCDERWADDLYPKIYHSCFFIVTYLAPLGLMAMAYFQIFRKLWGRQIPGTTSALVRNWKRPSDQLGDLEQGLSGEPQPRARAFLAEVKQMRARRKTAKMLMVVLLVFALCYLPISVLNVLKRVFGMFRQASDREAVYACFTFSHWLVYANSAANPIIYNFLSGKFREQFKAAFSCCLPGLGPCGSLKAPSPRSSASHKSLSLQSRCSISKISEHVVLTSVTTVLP
Briefly: FLIPR calcium assay of orexin receptor antagonistic activity, CHO cells expressing human orexin-1 receptor. It is filed as cell-based. The settings on record: 3 nM orexin-A as agonist; not normalized; *2/*3 = geometric mean of n = 2/3 values; read-out: OX1 IC50. The method, then: as §1, §2, §3, §4, §5

[1] abbreviates: 3 nM orexin-A as agonist, not normalized, *2/*3 = geometric mean of n = 2/3 values.

The record followed here is patent publication US20110105491A1, “THIAZOLIDINE COMPOUNDS AS OREXIN RECEPTOR ANTAGONISTS” (priority 2008, published 2011).

SMILES strings stand for the structures. Read-outs that look alike come from different tables or passages of the source.

As for `Cc1cccc(-c2sc(C)nc2C(=O)N2CCSC2CNC(=O)c2ccn3ccsc23)c1` (racemic) [Example 4, rac-Pyrrolo[2,1-b]thiazole-7-carboxylic acid [3-(2-methyl-5-m-tolyl-thiazole-4-carbonyl)-thiazolidin-2-ylmethyl]-amide], the concentration for half-maximal inhibition (IC50) on human orexin-2 receptor (setting [1]) and on human orexin-1 receptor was 2 nM each time. As to `Cc1cccc(-c2sc(C)nc2C(=O)N2CCSC2CNC(=O)c2ccc(C(F)(F)F)c3oc(C)cc23)c1` (racemic) [Example 11, rac-2-Methyl-7-trifluoromethyl-benzofuran-4-carboxylic acid [3-(2-methyl-5-m-tolyl-thiazole-4-carbonyl)-thiazolidin-2-ylmethyl]-amide], the figures for the IC50 at human orexin-2 receptor (setting [1]) and on human orexin-1 receptor were 63 nM and 17 nM, respectively. With `Cc1cccc(-c2sc(C)nc2C(=O)N2CCSC2CNC(=O)c2cccc3ocnc23)c1` (racemic) [Example 17, rac-Benzooxazole-4-carboxylic acid [3-(2-methyl-5-m-tolyl-thiazole-4-carbonyl)thiazolidin-2-ylmethyl]-amide], the IC50 at human orexin-2 receptor (setting [1]) was found to be 6 nM; at human orexin-1 receptor it was 4 nM. As to `Cc1nc(-c2cccc(Cl)c2)c(C(=O)N2CCSC2CNC(=O)c2cccc3c2CCO3)s1` (racemic) [Example 29, rac-2,3-Dihydro-benzofuran-4-carboxylic acid {3-[4-(3-chloro-phenyl)-2-methyl-thiazole-5-carbonyl]-thiazolidin-2-ylmethyl}-amide], the half-inhibitory concentration (IC50) was found to be 7 nM at human orexin-2 receptor (setting [1]) and 3 nM at human orexin-1 receptor. In the case of `COc1cccc(-c2nc(C)sc2C(=O)N2CCSC2CNC(=O)c2cccc3c2CCO3)c1` (racemic) [Example 32, rac-2,3-Dihydro-benzofuran-4-carboxylic acid {3-[4-(3-methoxy-phenyl)-2-methyl-thiazole-5-carbonyl]-thiazolidin-2-ylmethyl}-amide], the results for the IC50 at human orexin-2 receptor (setting [1]) and on human orexin-1 receptor were 5 nM and 4 nM, respectively. Regarding `Cc1nc(-c2ccc(F)cc2)c(C(=O)N2CCSC2CNC(=O)c2nn(C)c3ccccc23)s1` (racemic) [Example 39, rac-1-Methyl-1H-indazole-3-carboxylic acid {3-[4-(4-fluoro-phenyl)-2-methyl-thiazole-5-carbonyl]-thiazolidin-2-ylmethyl}-amide], the concentration for half-maximal inhibition (IC50) worked out at 86 nM at human orexin-2 receptor (setting [1]) and 8 nM on human orexin-1 receptor. As to `Cc1ccc(-c2nc(C)sc2C(=O)N2CCSC2CNC(=O)c2cccc3c2OCCO3)cc1` (racemic) [Example 42, rac-2,3-Dihydro-benzo[1,4]dioxine-5-carboxylic acid [3-(2-methyl-4-p-tolyl-thiazole-5-carbonyl)-thiazolidin-2-ylmethyl]-amide], the values for the IC50 at human orexin-2 receptor (setting [1]) and on human orexin-1 receptor were 31 nM and 10 nM, respectively.

`Cc1nc(-c2cccc(C(F)(F)F)c2)c(C(=O)N2CCSC2CNC(=O)c2nn(C)c3ccccc23)s1` (racemic) [Example 50, rac-1-Methyl-1H-indazole-3-carboxylic acid {3-[2-methyl-4-(3-trifluoromethyl-phenyl)-thiazole-5-carbonyl]-thiazolidin-2-ylmethyl}-amide]: the IC50 on human orexin-2 receptor (setting [1]) worked out at 43 nM; on human orexin-1 receptor, 7 nM. The like results for `Cc1nc(C(=O)N2CCSC2CNC(=O)c2cccc3c2OCCO3)c(-c2ccccc2)s1` (racemic) [Example 57, rac-2,3-Dihydro-benzo[1,4]dioxine-5-carboxylic acid [3-(2-methyl-5-phenyl-thiazole-4-carbonyl)-thiazolidin-2-ylmethyl]-amide] were, in that order, 10 nM and 4 nM. `Cc1nc(C(=O)N2CCSC2CNC(=O)c2nn(C)c3ccccc23)c(-c2ccc(C(F)(F)F)cc2)s1` (racemic) [Example 61, rac-1-Methyl-1H-indazole-3-carboxylic acid {3-[2-methyl-5-(4-trifluoromethyl-phenyl)-thiazole-4-carbonyl]-thiazolidin-2-ylmethyl}-amide]: the values for the IC50 at human orexin-2 receptor (setting [1]) and at human orexin-1 receptor were 28 nM and 16 nM, respectively.

As for `Cc1ccc(-c2ccccc2C(=O)N2CCSC2CNC(=O)c2cccc3ncsc23)cc1C` (racemic) [Example 72, rac-Benzothiazole-7-carboxylic acid [3-(3′,4′-dimethyl-biphenyl-2-carbonyl)-thiazolidin-2-ylmethyl]-amide], the IC50 at human orexin-2 receptor (setting [1]) came to 10 nM; on human orexin-1 receptor it was 12 nM.

Turning to `Cc1nc(C(=O)N2CCSC2CNC(=O)c2cccc3c2CCO3)c(-c2ccc(F)cc2)s1` (racemic) [Example 77, rac-2,3-Dihydro-benzofuran-4-carboxylic acid {3-[5-(4-fluoro-phenyl)-2-methyl-thiazole-4-carbonyl]-thiazolidin-2-ylmethyl}-amide], the 50% inhibitory concentration (IC50) at human orexin-2 receptor (setting [1]) and on human orexin-1 receptor was 4 nM in each case. Turning to `Cc1cccc(-c2oc(C)nc2C(=O)N2CCSC2CNC(=O)c2cccc3ncsc23)c1` (racemic) [Example 83, rac-Benzothiazole-7-carboxylic acid [3-(2-methyl-5-m-tolyl-oxazole-4-carbonyl)-thiazolidin-2-ylmethyl]-amide], the IC50 at human orexin-2 receptor (setting [1]) came out at 11 nM; at human orexin-1 receptor, 14 nM. The matching figures for `Cc1nc(C(=O)N2CCSC2CNC(=O)c2cccc3ncsc23)c(-c2ccccc2)o1` (racemic) [Example 88, rac-Benzothiazole-7-carboxylic acid [3-(2-methyl-5-phenyl-oxazole-4-carbonyl)-thiazolidin-2-ylmethyl]-amide]: 7 nM and 4 nM. The like results for `Cc1nc(C(=O)N2CCSC2CNC(=O)c2cccc3c2OCCO3)c(-c2cccc(F)c2)o1` (racemic) [Example 95, rac-2,3-Dihydro-benzo[1,4]dioxine-5-carboxylic acid {3-[5-(3-fluoro-phenyl)-2-methyl-oxazole-4-carbonyl]-thiazolidin-2-ylmethyl}-amide] were, in that order, 68 nM and 23 nM.

On to `COc1cccc(-c2oc(C)nc2C(=O)N2CCSC2CNC(=O)c2cccc3ncsc23)c1` (racemic) [Example 104, rac-Benzothiazole-7-carboxylic acid {3-[5-(3-methoxy-phenyl)-2-methyl-oxazole-4-carbonyl]-thiazolidin-2-ylmethyl}-amide], for which the results for the IC50 at human orexin-2 receptor (setting [1]) and at human orexin-1 receptor were 8 nM and 7 nM, respectively. The matching figures for `Cc1cccc(-c2sccc2C(=O)N2CCSC2CNC(=O)c2cccc3ncsc23)c1` (racemic) [Example 109, rac-Benzothiazole-7-carboxylic acid [3-(2-m-tolyl-thiophene-3-carbonyl)-thiazolidin-2-ylmethyl]-amide]: 10 nM and 7 nM. With `COc1cccc(-c2nccnc2C(=O)N2CCSC2CNC(=O)c2cccc3ncsc23)c1` (racemic) [Example 196, rac-Benzothiazole-7-carboxylic acid {3-[3-(3-methoxy-phenyl)-pyrazine-2-carbonyl]-thiazolidin-2-ylmethyl}-amide], at human orexin-2 receptor, the IC50 was 3 nM.
